The test system of the experiment is IL-12. Description: Human in vitro assay: inhibition of IL-12 production in IFNγ/LPS- or IFNγ/SAC-stimulated human PBMC or THP-1 cells (ELISA). The experiment is classed as cell-based. As to conditions: read-out: IC50 Range (representative in vitro IC50 data). The text has this:
The biological activities of a heterocyclic compound can be evaluated by a number of cell-based assays. One of such assays can be conducted using cells from human peripheral blood mononuclear cells (PBMC) or human monocytic cell line (THP-1). The cells are stimulated with a combination of human interferon-γ (IFNγ) and lipopolysaccharide or a combination of IFNγ and Staphylococcus aureus Cowan I in the presence of a test compound. The level of inhibition of IL-12 production can be measured by determining the amount of p70 by using a sandwich ELISA assay with anti-human IL-12 antibodies. IC50 of the test compound can then be determined. Specifically, PBMC or THP-1 cells are incubated with the test compound. Cell viability was assessed using the bioreduction of MTS [3-(4,5-dimethylthiazol-2-yl)-5-(3-carboxymethoxyphenyl)-2-(4-sulfophenyl)-2H-tetrazolium](Promega, Madison, Wis.).
Human In Vitro Assay. Human PBMC were isolated by centrifugation using Ficoll-Paque (Pharmacia Biotech, Uppsala, Sweden) and prepared in RPMI medium supplemented with 10% fetal calf serum (FCS), 100 U/mL penicillin, and 100 μg/mL streptomycin. PBMC were plated in wells of a 96-well plate at a concentration of 5×10^5 cells/well, and primed by adding IFNγ (30 U/mL) for 22 h and stimulated by adding LPS (1 μg/mL), or by adding IFNγ (100 U/mL) and then stimulated by adding SAC (0.01%). A test pyrimidine compound was dissolved in DMSO, and added to wells of the 96-well plate. The final DMSO concentration was adjusted to 0.25% in all cultures, including the compound-free control. Human THP-1 cells were plated in wells, primed by adding IFNγ (100 U/mL) for 22 h and stimulated by adding SAC (0.025%) in the presence of different concentrations of the pyrimidine compound. Cell-free supernatants were taken 18 h later for measurement of cytokines. Cell viability was assessed using the bioreduction of MTS. Cell survival was estimated by determining the ratio of the absorbance in compound-treated groups versus compound-free control.
The supernatant was assayed for the amount of IL-12p40, IL-12p70, or IL-10 by using a sandwich ELISA with anti-human antibodies, i.e., a Human IL-12 p40 ELISA kit from R&D Systems (Berkeley, Calif.), and a Human IL-12 p70 or IL-10 ELISA kit from Endogen (Cambridge, Mass.). Assays were based on the manufacturer's instructions.
The biological activities of pyrimidine compounds were tested on human PBMC or THP-1 cells.

Molecules are shown by their SMILES.

Broadly, the IC50 is the midpoint of a concentration-inhibition curve.

As for `Cc1[nH]c2ccc(NC(=O)c3cc(OCCN4CCOCC4)cc(N4CCOCC4)n3)cc2c1C` [Compound 29, 6-Morpholin-4-yl-4-(2-morpholin-4-yl-ethoxy)-pyridine-2-carboxylic acid (2,3-dimethyl-1H-indol-5-yl)-amide], the IC50 is less than 1000 nM.

`Cc1[nH]c2ccc(NC(=O)c3cc(N4CCOCC4)cc(N4CCOCC4)n3)cc2c1C` [Compound 30, 4,6-Di-morpholin-4-yl-pyridine-2-carboxylic acid (2,3-dimethyl-1H-indol-5-yl)-amide]: the IC50 was less than 1000 nM.

In the case of `Cc1c(C)n(C)c2ccc(N(C)C(=O)c3cc(OCCN4CCOCC4)nc(N4CCOCC4)n3)cc12` [Compound 31, 2-Morpholin-4-yl-6-(2-morpholin-4-yl-ethoxy)-pyrimidine-4-carboxylic acid methyl-(1,2,3-trimethyl-1H-indol-5-yl)-amide], the 50% inhibitory concentration (IC50) is not below 1000 nM.

In the case of `Cc1ccc2nc(NC(=O)c3cc(OCCc4ccccn4)nc(N4CCOCC4)n3)sc2c1` [Compound 32, 2-Morpholin-4-yl-6-(2-pyridin-2-yl-ethoxy)-pyrimidine-4-carboxylic acid (6-methyl-benzothiazol-2-yl)-amide], the IC50 is not below 1000 nM.

For the molecule `CCn1c2ccccc2c2ccc(NC(=O)c3cc(OCCc4ccccn4)nc(N4CCOCC4)n3)cc21` [Compound 33, 2-Morpholin-4-yl-6-(2-pyridin-2-yl-ethoxy)-pyrimidine-4-carboxylic acid (9-ethyl-9H-carbazol-2-yl)-amide], the IC50 was not below 1000 nM.

`Cc1cccc(NC(=O)c2cc(OCCc3ccccn3)nc(N3CCOCC3)n2)n1` [Compound 34, 2-Morpholin-4-yl-6-(2-pyridin-2-yl-ethoxy)-pyrimidine-4-carboxylic acid (6-methyl-pyridin-2-yl)-amide]: the concentration for half-maximal inhibition (IC50) is not below 1000 nM.

As for `Cc1ccnc(NC(=O)c2cc(OCCc3ccccn3)nc(N3CCOCC3)n2)c1` [Compound 35, 2-Morpholin-4-yl-6-(2-pyridin-2-yl-ethoxy)-pyrimidine-4-carboxylic acid (4-methyl-pyridin-2-yl)-amide], the IC50 is not below 1000 nM.

In the case of `O=C(Nc1ccc2ncsc2c1)c1cc(OCCc2ccccn2)nc(N2CCOCC2)n1` [Compound 36, 2-Morpholin-4-yl-6-(2-pyridin-2-yl-ethoxy)-pyrimidine-4-carboxylic acid benzothiazol-6-ylamide], the 50% inhibitory concentration (IC50) was not below 1000 nM.

Consider `O=C(Nc1ccc2ccccc2c1)c1cc(OCCc2ccccn2)nc(N2CCOCC2)n1` [Compound 37, 2-Morpholin-4-yl-6-(2-pyridin-2-yl-ethoxy)-pyrimidine-4-carboxylic acid naphthalen-2-ylamide], for which the IC50 was not below 1000 nM.

Consider `O=C(Nc1ccc2ncccc2c1)c1cc(OCCc2ccccn2)nc(N2CCOCC2)n1` [Compound 38, 2-Morpholin-4-yl-6-(2-pyridin-2-yl-ethoxy)-pyrimidine-4-carboxylic acid quinolin-6-ylamide], for which the IC50 is not below 1000 nM.

On to `O=C(Nc1cccc2ncccc12)c1cc(OCCc2ccccn2)nc(N2CCOCC2)n1` [Compound 39, 2-Morpholin-4-yl-6-(2-pyridin-2-yl-ethoxy)-pyrimidine-4-carboxylic acid quinolin-5-ylamide], for which the 50% inhibitory concentration (IC50) was not below 1000 nM.

With `O=C(Nc1ccc2c(c1)CCC2)c1cc(OCCN2CCOCC2)nc(N2CCOCC2)n1` [Compound 40, 2-Morpholin-4-yl-6-(2-morpholin-4-yl-ethoxy)-pyrimidine-4-carboxylic acid indan-5-ylamide], the IC50 was not below 1000 nM.

Regarding `Cc1[nH]c2c(NC(=O)c3cc(OCCN4CCOCC4)nc(N4CCOCC4)n3)cccc2c1C` [Compound 41, 2-Morpholin-4-yl-6-(2-morpholin-4-yl-ethoxy)-pyrimidine-4-carboxylic acid (2,3-dimethyl-1H-indol-7-yl)-amide], the concentration for half-maximal inhibition (IC50) was not below 1000 nM.

For the molecule `Cc1[nH]c2ccc(NC(=O)c3cc(OCCN4CCCCC4)nc(N4CCOCC4)n3)cc2c1C` [Compound 42, 2-Morpholin-4-yl-6-(2-piperidin-1-yl-ethoxy)-pyrimidine-4-carboxylic acid (2,3-dimethyl-1H-indol-5-yl)-amide], the IC50 is not below 1000 nM.

The values above are taken from patent publication US20060223996A1, “IL-12 modulatory compounds” (Synta Pharmaceuticals Corp., priority 2004, published 2006).
